Measurements published in publication PMC8143647, “Proteomics of Galápagos Marine Iguanas Links Function of Femoral Gland Proteins to the Immune System” (Molecular & Cellular Proteomics : MCP, 2020).

Legend:
Bacillus subtilis = experiment: Antimicrobial activity, relative growth inhibition in broth microdilution (Gram-pos.); format: cell-based; parameters: key to Activity against Gram-pos.: ++: highly active (comparable to oncocin); +: moderately active; +/-: moderately active without clear dose dependency; -: no activity; details: for Activity against Gram-pos.: Bacillus subtilis in Miller-Hinton broth, inoculum 1-2 x 10^7 cfu/ml, 100 µl + 20 µl test substance, 2n dilution series from 1 mg/ml down to 31 µg/ml, 18-24 h 37 °C, photometer 600 nm, duplicates
Experimental: (§1) Test strains of Bacillus subtilis, Escherichia coli K12 or Escherichia coli BL21 were grown in Miller-Hinton broth (MHB) for 18–20 h at 37 °C with moderate shaking. An inoculum of 1–2 × 10^7 cfu/ml was prepared in fresh MHB and 100 µl of the suspension was pipetted into microtiter plate wells together with 20 µl test substance. Test substances were measured in duplicates. The plates were covered by a plastic seal to prevent evaporation and incubated for further 18–24 h at 37 °C with moderate shaking. The test substances were dissolved in water at a concentration of 1 mg/ml and a 2n dilution series down to 31 µg/ml was prepared in sterile PBS. After incubation, the bacterial growth was estimated with a Photometer at 600 nm and the relative growth inhibition was calculated compared with a control without test substance. As positive control the well-studied AMP oncocin was used.
(§2) We were intrigued by these antimicrobial signatures and sought to systematically analyze the proteome of femoral glands. To this end, we utilized the marine iguana protein database of all detected proteins, and generated a library of potential antimicrobial peptides (AMP) by in-silico sliding window digestion. Here, we generated sequence windows of 8 to 15 amino acids and resulting peptides were predicted for antimicrobial activity by a trained support vector machine (as described in the methods) (Fig. 5). […] To experimentally test the antimicrobial properties of these peptides, we determined growth rate reductions of bacterial cultures in the presence of increasing candidate peptide concentration. As positive control, we used the well-established AMP oncocin ([40]). As negative control, we have picked four peptides predicted to have no AMP activity.

[1] = system: Escherichia coli K12 or Escherichia coli BL21; experiment: Antimicrobial activity, relative growth inhibition in broth microdilution (Gram-neg.); format: cell-based; parameters: key to Activity against Gram-neg.: ++: highly active (comparable to oncocin); +: moderately active; +/-: moderately active without clear dose dependency; -: no activity; antimicrobial activity compared with oncocin: dose or concentration left out as unconfirmed; details: for Activity against Gram-neg.: Escherichia coli in Miller-Hinton broth, inoculum 1-2 x 10^7 cfu/ml, 100 µl + 20 µl test substance, 2n dilution series from 1 mg/ml down to 31 µg/ml, 18-24 h 37 °C, photometer 600 nm, duplicates
Experimental: as §1, §2

Substance	Activity against Gram-pos. (Bacillus subtilis)	Activity against Gram-neg. [1]	dose dependent maximal growth reduction (Bacillus subtilis; B. subtilis cultures, high concentrations required, vs control without test substance, OD 600 nm) [%]	antimicrobial activity compared with oncocin ([1]; E. coli cultures, low concentrations between 3 and 60)	dose dependent maximal growth reduction ([1]; E. coli cultures, vs control without test substance, OD 600 nm)
LKVPELNV [Iguana-non-02]	-	-			
VDKPPYLPRPRPPRRIYNR-NH2 [Oncocin, well-studied AMP used as positive control, …-NH2, reference compound]	++	++			
SYFVKRPPGV [Iguana-13, predicted antimicrobial peptide from marine iguana proteome, …]	+/-	+/-			
SALWVVER [Iguana-non-01]	-	-			
MPKFHMPKF [Iguana-17, predicted antimicrobial peptide from marine iguana proteome, …]	++	++			
LSRPGVLERFLPDKP [Iguana-16, predicted antimicrobial peptide from marine iguana proteome, …]	+	+			
IIPNEDFS [Iguana-05, predicted antimicrobial peptide from marine iguana proteome, IIPNEDFS]		-			
IFELDGALYR [Iguana-non-04]	-	-			
KKLYISKGCMSKSLC [Iguana-04, predicted antimicrobial peptide from marine iguana proteome, …]	++	++	~95	exceeded even the oncocin activity	approx. 75%
GGRRGSI [Iguana-02, predicted antimicrobial peptide from marine iguana proteome, GGRRGSI]	+/-	+/-			
GSFPKEAIVQK [Iguana-07, predicted antimicrobial peptide from marine iguana proteome, …]		+/-			
RGQYG [Iguana-09, predicted antimicrobial peptide from marine iguana proteome, RGQYG]		+			
RLTPFVEPRY [Iguana-12, predicted antimicrobial peptide from marine iguana proteome, …]	+/-	+			
RGSIGGGRRGSI [Iguana-03, predicted antimicrobial peptide from marine iguana proteome, …]	+/-	-			
LSLSRISIP [Iguana-06, predicted antimicrobial peptide from marine iguana proteome, …]		+/-			
IADPDQFVLKPQ [Iguana-15, predicted antimicrobial peptide from marine iguana proteome, …]	+/-	+			
LPTKLDSAFIRKDPFG [Iguana-14, predicted antimicrobial peptide from marine iguana proteome, …]	+/-	+			
YKFYKA [Iguana-01, predicted antimicrobial peptide from marine iguana proteome, YKFYKA]	+	+			
NLVSVDERLV [Iguana-non-03]	-	-			
AGVPRFRFGPPE [Iguana-10, predicted antimicrobial peptide from marine iguana proteome, …]	+/-	++			
VDPQKV [Iguana-08, predicted antimicrobial peptide from marine iguana proteome, VDPQKV]		+			
KKPLITMDEIP [Iguana-11, predicted antimicrobial peptide from marine iguana proteome, …]	++	+			
